In patent US5077204A, “Yeast endopeptidase for basic amino-acid site cleavage, preparation and use” (Chiron Corporation, priority 1988, dated 1991):
Like-named read-outs stand apart in the source and are kept apart here. Peptide text beside a SMILES is read from it. * marks the point of attachment. AMC = Cc1cc(=O)oc2cc(N*)ccc12; Boc = CC(C)(C)OC(=O)*

How the values were obtained:
Type in all cases: biochemical, S. cerevisiae
[1] = molecular target: T1, KEX2 endopeptidase (kex2[YEp24-pJ2B] membranes) (Saccharomyces cerevisiae, UniProt P13134); test: Endopeptidase activity in membranes from kex2 cells carrying multicopy plasmid pJ2B (over-produced specific endopeptidase); settings: for Relative Ratio: kex2[YEp24-pJ2B] relative to kex2[YEp24] = [1.0]; for Rate of hydrolysis, membranes from kex2 cells carrying pJ2B versus membranes from kex2 cells carrying YEp24 / Rate of hydrolysis (in words): membrane fractions; for Rate of hydrolysis, membranes from kex2 cells carrying pJ2B versus membranes from kex2 cells carrying YEp24: depending on the experiment; for Rate of hydrolysis (in words): endopeptidase substrates containing single arginine residues
T1 construct: not only includes the KEX2 gene, but also the necessary transcriptional and translational regulatory signals for expression in yeast; expressed in transfected cells; host or cells: S. cerevisiae XBH16-15A (MATalpha kex2-1) carrying YEp24-pJ2B
T1 sequence (P13134 114-814): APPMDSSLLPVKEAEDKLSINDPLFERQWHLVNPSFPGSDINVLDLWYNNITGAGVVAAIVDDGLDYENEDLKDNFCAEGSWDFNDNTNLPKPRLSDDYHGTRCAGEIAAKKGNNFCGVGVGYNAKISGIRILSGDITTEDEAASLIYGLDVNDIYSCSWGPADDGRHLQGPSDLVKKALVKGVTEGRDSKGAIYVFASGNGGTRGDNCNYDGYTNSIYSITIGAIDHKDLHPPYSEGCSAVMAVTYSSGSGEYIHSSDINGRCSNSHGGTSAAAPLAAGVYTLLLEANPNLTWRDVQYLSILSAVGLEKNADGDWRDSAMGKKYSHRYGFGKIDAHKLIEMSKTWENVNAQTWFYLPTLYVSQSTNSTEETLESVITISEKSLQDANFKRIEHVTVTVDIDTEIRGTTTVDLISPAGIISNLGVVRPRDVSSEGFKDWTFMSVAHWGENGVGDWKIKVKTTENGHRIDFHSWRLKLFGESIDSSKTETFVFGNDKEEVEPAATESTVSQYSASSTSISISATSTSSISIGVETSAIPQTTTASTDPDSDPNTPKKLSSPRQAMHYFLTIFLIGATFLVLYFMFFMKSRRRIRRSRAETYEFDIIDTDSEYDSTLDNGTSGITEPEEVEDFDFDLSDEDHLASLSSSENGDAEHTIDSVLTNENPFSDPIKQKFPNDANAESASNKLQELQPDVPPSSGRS
Description: (§1) Permeabilization of whole yeast cells with the non-ionic detergent Brij 58, preparation of crude membrane fractions, and measurement of protein concentration were conducted by the methods described previously (Julius et al., 1983, supra), incorporated herein by reference. To measure peptidase activity, samples of permeabilized cells or membrane material were added to a reaction mixture containing 0.1-0.5 mM fluorogenic peptide substrate (added from a 20 mM stock dissolved in DMSO) and 200 mM HEPES-Tris (pH 7.0), in a final volume of 0.4 ml. Following incubation for 30 min at 37° C., whole cells were removed by centrifugation in a microfuge (Eppendorf) and membrane material was removed by Ba(OH)2 -ZnSO4 precipitation. The amount of fluorescence formed in the supernatant solution was determined in a fluorescence spectrophotometer (Perkin-Elmer, Model MPF-44B), set either at an excitation wavelength of 335 nm and an emission wavelength of 410 nm (for measurement of β-naphthylamine) or at an excitation wavelength of 380 nm and an emission wavelength of 460 nm (for measurement of 7-amino-4-methyl-coumarin, AMC). To determine the number of moles of substrate hydrolyzed, the fluorescence yield of samples was compared to a standard curve prepared with known concentrations of authentic AMC dissolved in the same buffer.
(§2) Cells of strain XBH1615A that had been transformed with the plasmids
(§3) indicated, or that contained pJ2B in integrated form, were grown in SCUra
(§4) and membranes were prepared as described in the Experimental.
(§5) Endopeptidase activity was assayed as described in the Experimental. All
(§6) substrates tested were present at 0.1 mM.
(§7) Endopeptidase activity was assayed using Boc--GlnArgArg--MCA as the
(§8) substrate, as outlined in the Experimental. All inhibitors were added fro
a 0.1 M stock dissolved in dimethyl sulfoxide.

[2] = tested on: background activity in membranes of kex2[YEp24] cells; test: Endopeptidase activity in membranes from kex2 cells transformed with the vector YEp24 alone (background activity); settings: for Susceptibility of the background activity to inhibition: kex2 cells transformed with YEp24 alone
Description: as §1, §2, §3, §4, §5, §6, §7, §8
(§9) a 0.1 M stock dissolved in dimethyl sulfoxide. All values given were
(§10) corrected for the slight effects of addition of this solvent alone.

[3] = molecular target: T2, KEX2 endopeptidase (kex2::pJ2B membranes) (Saccharomyces cerevisiae, UniProt P13134); test: Endopeptidase activity in membranes from kex2 cells containing pJ2B in integrated form; settings: for Relative Ratio: kex2::pJ2B relative to kex2[YEp24] = [1.0]
T2 construct: not only includes the KEX2 gene, but also the necessary transcriptional and translational regulatory signals for expression in yeast; expressed in transfected cells; host or cells: S. cerevisiae XBH16-15A (MATalpha kex2-1) containing pJ2B in integrated form; crude membranes
Description: as §1, §2, §3, §4, §5, §6, §7, §8, §9, §10

[4] = kex2[YEp24-pJ2B], inhibitor 1 mM, substrate Boc-GlnArgArg-MCA
[5] = kex2[YEp24-pJ2B], inhibitor 5 mM, substrate Boc-GlnArgArg-MCA
[6] = kex2 cells transformed with plasmid pJ2B, comparisons are to the background activity
[7] = kex2[YEp24], inhibitor 1 mM, substrate Boc-GlnArgArg-MCA
[8] = kex2[YEp24], inhibitor 5 mM, substrate Boc-GlnArgArg-MCA
[9] = kex2::pJ2B, inhibitor 1 mM, substrate Boc-GlnArgArg-MCA
[10] = kex2::pJ2B, inhibitor 5 mM, substrate Boc-GlnArgArg-MCA
[11] = strain kex2[YEp24-pJ2B], substrate 0.1 mM, membranes
[12] = strain kex2[YEp24], substrate 0.1 mM, membranes
[13] = strain kex2::pJ2B, substrate 0.1 mM, membranes

## Cc1ccc(S(=O)(=O)NC(Cc2ccccc2)C(=O)CCl)cc1 (centres unmarked) [TPCK, tosyl-phenylalanine-chloromethylketone]
[1]; [4]
  Specific Activity: 105.9 pmoles/μg/10 min
  inhibition at 1000 µM: 2%
[1]; [5]
  Specific Activity: 109.2 pmoles/μg/10 min
  inhibition at 5000 µM: 0%
[1]; [6]
  Susceptibility of the specific KEX2 endopeptidase to inhibition or inactivation: completely resistant
[2]; [7]
  Inhibition: 57%
  Specific Activity: 2.2 pmoles/μg/10 min
[2]; [8]
  Inhibition: 73%
  Specific Activity: 1.4 pmoles/μg/10 min
[2]
  Susceptibility of the background activity to inhibition: sensitive to inhibition
[3]
  inhibition at 1000 µM: 18%
  inhibition at 5000 µM: 13%
[3]; [9]
  Specific Activity: 14.3 pmoles/μg/10 min
[3]; [10]
  Specific Activity: 15.2 pmoles/μg/10 min

## Cc1ccc(S(=O)(=O)NC(CCCCN)C(=O)CCl)cc1 (centres unmarked) [TLCK, tosyl-lysine-chloromethylketone]
[1]; [4]
  Specific Activity: 100.8 pmoles/μg/10 min
  inhibition at 1000 µM: 7%
[1]; [5]
  Specific Activity: 95.5 pmoles/μg/10 min
  inhibition at 5000 µM: 12%
[1]; [6]
  Susceptibility of the specific KEX2 endopeptidase to inhibition or inactivation: completely resistant
[2]; [7]
  Inhibition: 55%
  Specific Activity: 2.3 pmoles/μg/10 min
[2]; [8]
  Inhibition: 65%
  Specific Activity: 1.8 pmoles/μg/10 min
[2]
  Susceptibility of the background activity to inhibition: sensitive to inhibition
[3]
  inhibition at 1000 µM: 16%
  inhibition at 5000 µM: 17%
[3]; [9]
  Specific Activity: 14.6 pmoles/μg/10 min
[3]; [10]
  Specific Activity: 14.5 pmoles/μg/10 min

## Cc1cc(=O)oc2cc(NC(=O)[C@@H](N)CC(C)C)ccc12 [Leu--MCA, Leu-MCA]
[1]; substrate 0.1 mM
  Relative Ratio: 2.1
[1]
  Rate of hydrolysis, membranes from kex2 cells carrying pJ2B versus membranes from kex2 cells carrying YEp24: no significant increase
[1]; [11]
  Specific Activity: 69.8 pmoles AMC formed/μg protein 10
[2]; [12]
  Specific Activity: 33.7 pmoles AMC formed/μg protein 10
[3]; substrate 0.1 mM
  Relative Ratio: 1.1
[3]; [13]
  Specific Activity: 37.9 pmoles AMC formed/μg protein 10

## Cc1cc(=O)oc2cc(NC(=O)[C@H](CCCNC(=N)N)NC(=O)[C@H](CO)NC(=O)[C@H](Cc3ccccc3)NC(=O)OC(C)(C)C)ccc12 [Boc--PheSerArg--MCA, Boc-PheSerArg-MCA] (Boc-Phe-Ser-Arg-{AMC})
[1]; substrate 0.1 mM
  Relative Ratio: 51.7
[1]; membrane fractions of kex2 cells carrying pJ2B
  Rate of hydrolysis relative to Boc-GlnArgArg-MCA, times more slowly: about three times more slowly
[1]; [11]
  Specific Activity: 31.0 pmoles AMC formed/μg protein 10
[2]; [12]
  Specific Activity: 0.6 pmoles AMC formed/μg protein 10
[3]; substrate 0.1 mM
  Relative Ratio: 6.3
[3]; [13]
  Specific Activity: 3.8 pmoles AMC formed/μg protein 10

## Cc1cc(=O)oc2cc(NC(=O)[C@H](CCCNC(=N)N)NC(=O)c3ccccc3)ccc12 [Bz--Arg--MCA, Bz-Arg-MCA]
[1]; substrate 0.1 mM
  Relative Ratio: 6.0
[1]
  Rate of hydrolysis (in words): negligible rates
[1]; [11]
  Specific Activity: 0.6 pmoles AMC formed/μg protein 10
[2]; [12]
  Specific Activity: 0.1 pmoles AMC formed/μg protein 10
[3]; substrate 0.1 mM
  Relative Ratio: 1.0
[3]; [13]
  Specific Activity: 0.1 pmoles AMC formed/μg protein 10

## CC[C@H](C)[C@H](NC(=O)OC(C)(C)C)C(=O)N[C@@H](CCC(=O)O)C(=O)NCC(=O)N[C@@H](CCCNC(=N)N)C(=O)Nc1ccc2c(C)cc(=O)oc2c1 [Boc--IleGluGlyArg--MCA, Boc-IleGluGlyArg-MCA] (Boc-IEGR-{AMC})
[1]; substrate 0.1 mM
  Relative Ratio: 19.3
[1]
  Rate of hydrolysis (in words): negligible rates
[1]; [11]
  Specific Activity: 5.8 pmoles AMC formed/μg protein 10
[2]; [12]
  Specific Activity: 0.3 pmoles AMC formed/μg protein 10
[3]; substrate 0.1 mM
  Relative Ratio: 3.0
[3]; [13]
  Specific Activity: 0.9 pmoles AMC formed/μg protein 10

## O=S(=O)(F)Cc1ccccc1 [PMSF, phenylmethylsulfonyl fluoride]
[1]; [4]
  Inhibition: 0%
  Specific Activity: 116.7 pmoles/μg/10 min
[1]; [5]
  Inhibition: 0%
  Specific Activity: 110.2 pmoles/μg/10 min
[1]; [6]
  Susceptibility of the specific KEX2 endopeptidase to inhibition or inactivation: completely resistant
[2]; [7]
  Inhibition: 45%
  Specific Activity: 2.8 pmoles/μg/10 min
[2]; [8]
  Inhibition: 71%
  Specific Activity: 1.5 pmoles/μg/10 min
[2]
  Susceptibility of the background activity to inhibition: sensitive to inhibition
[3]; [9]
  Inhibition: 17%
  Specific Activity: 14.4 pmoles/μg/10 min
[3]; [10]
  Inhibition: 16%
  Specific Activity: 14.7 pmoles/μg/10 min

## CO [methanol]
[1]
  Susceptibility of the specific KEX2 endopeptidase to inhibition or inactivation: much less sensitive to inactivation

## O=C(O)CI [iodoacetic acid]
[1]
  Susceptibility of the specific KEX2 endopeptidase to inhibition or inactivation: more susceptible to inhibition

## NC(=O)CI [iodoacetamide]
[1]; [6]
  Susceptibility of the specific KEX2 endopeptidase to inhibition or inactivation: more susceptible to inhibition

## Cc1cc(=O)oc2cc(NC(=O)[C@@H](N)CCCNC(=N)N)ccc12 [Arg--MCA, Arg-MCA]
[1]; substrate 0.1 mM
  Relative Ratio: 2.1
[1]
  Rate of hydrolysis, membranes from kex2 cells carrying pJ2B versus membranes from kex2 cells carrying YEp24: no significant increase
[1]; [11]
  Specific Activity: 14.0 pmoles AMC formed/μg protein 10
[2]; [12]
  Specific Activity: 6.7 pmoles AMC formed/μg protein 10
[3]; substrate 0.1 mM
  Relative Ratio: 1.2
[3]; [13]
  Specific Activity: 8.0 pmoles AMC formed/μg protein 10

## C[S+](C)[O-] [dimethyl sulfoxide]
[1]; [6]
  Susceptibility of the specific KEX2 endopeptidase to inhibition or inactivation: much less sensitive to inactivation

## NC=O [formamide]
[1]; [6]
  Susceptibility of the specific KEX2 endopeptidase to inhibition or inactivation: much less sensitive to inactivation
